Values of other authors, collected in patent US8581001B2, “Metformin-cysteine prodrug” (Codman & Shurtleff, priority 2010, dated 2013).
Blank lines part the entries; values can stand above or below the molecule they belong to.

What was measured:
human patients = human patients (NASH)
[1] = not given; remark: listed apart in the source
LAT2 = target: T1, LAT2 (Homo sapiens, UniProt Q9UHI5)
T1 sequence (Q9UHI5 1-535): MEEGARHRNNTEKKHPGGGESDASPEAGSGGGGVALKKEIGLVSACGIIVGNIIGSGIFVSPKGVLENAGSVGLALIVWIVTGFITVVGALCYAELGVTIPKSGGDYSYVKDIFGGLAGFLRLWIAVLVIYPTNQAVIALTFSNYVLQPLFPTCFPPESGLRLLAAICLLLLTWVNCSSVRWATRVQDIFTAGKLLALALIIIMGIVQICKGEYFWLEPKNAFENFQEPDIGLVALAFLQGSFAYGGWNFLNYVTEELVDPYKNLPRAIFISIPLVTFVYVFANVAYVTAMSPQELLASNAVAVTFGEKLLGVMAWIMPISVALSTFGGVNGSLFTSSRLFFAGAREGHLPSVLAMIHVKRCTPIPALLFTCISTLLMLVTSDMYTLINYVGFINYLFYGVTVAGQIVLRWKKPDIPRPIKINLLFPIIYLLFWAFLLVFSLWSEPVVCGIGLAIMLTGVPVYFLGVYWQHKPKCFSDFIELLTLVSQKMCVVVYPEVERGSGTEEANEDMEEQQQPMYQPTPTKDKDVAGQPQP
T1 sequence (P08195 1-529 partner): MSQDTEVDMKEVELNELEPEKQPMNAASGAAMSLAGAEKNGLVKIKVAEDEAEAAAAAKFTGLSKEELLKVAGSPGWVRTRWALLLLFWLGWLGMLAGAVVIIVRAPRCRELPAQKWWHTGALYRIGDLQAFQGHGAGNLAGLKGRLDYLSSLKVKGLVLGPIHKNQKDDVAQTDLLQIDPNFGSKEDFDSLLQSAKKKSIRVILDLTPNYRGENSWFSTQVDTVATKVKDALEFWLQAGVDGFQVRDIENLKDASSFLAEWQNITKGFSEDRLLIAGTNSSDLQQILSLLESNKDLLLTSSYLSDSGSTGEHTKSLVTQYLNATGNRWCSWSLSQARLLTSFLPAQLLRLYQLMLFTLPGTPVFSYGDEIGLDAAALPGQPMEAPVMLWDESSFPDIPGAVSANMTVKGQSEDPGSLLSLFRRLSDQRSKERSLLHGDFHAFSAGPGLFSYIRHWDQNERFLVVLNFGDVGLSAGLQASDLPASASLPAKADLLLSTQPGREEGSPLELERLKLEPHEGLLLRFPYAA

LAT1 = LAT1 (Homo sapiens, UniProt Q01650)
Chain of LAT1 (Q01650 whole entry, species assumed, one chain of several): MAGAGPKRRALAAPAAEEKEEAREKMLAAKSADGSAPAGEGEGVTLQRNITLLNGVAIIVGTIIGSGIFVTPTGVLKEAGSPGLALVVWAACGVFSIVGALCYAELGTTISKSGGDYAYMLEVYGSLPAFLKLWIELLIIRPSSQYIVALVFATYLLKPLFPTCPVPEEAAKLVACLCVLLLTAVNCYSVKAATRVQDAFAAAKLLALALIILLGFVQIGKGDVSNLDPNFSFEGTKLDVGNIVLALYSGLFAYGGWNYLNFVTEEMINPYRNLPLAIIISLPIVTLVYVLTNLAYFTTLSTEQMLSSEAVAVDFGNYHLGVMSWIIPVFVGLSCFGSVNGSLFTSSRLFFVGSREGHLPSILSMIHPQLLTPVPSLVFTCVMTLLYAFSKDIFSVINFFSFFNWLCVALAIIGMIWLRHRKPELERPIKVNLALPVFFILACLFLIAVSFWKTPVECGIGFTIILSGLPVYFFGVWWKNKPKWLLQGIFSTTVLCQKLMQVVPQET

Structure (SMILES): N[C@@H](CCC(=O)N[C@@H](CSSC[C@H](N)C(=O)O)C(=O)NCC(=O)O)C(=O)O [Cy-LLGSH]
protection against acetaminophen-induced hepatotoxicity (mice): highly effective

Structure (SMILES): CC(=O)N[C@@H](CS)C(=O)O [NAC, n-acetylcysteine]
amelioration of the complications of non-alcoholic fatty liver disease (human patients): neither metformin nor NAC alone provided any significant benefits

absorption in the colon (colon): poorly absorbed
uptake in the small intestine (small intestine): effectively taken up
window in which metformin is above ½ of its Cmax ([1]; FIG. 4 of US 2007-0154548): about 6 hours
time window for effective plasma concentrations ([1]; in vivo): about 6 hours
Structure (SMILES): CN(C)C(=N)N=C(N)N [metformin]
amelioration of the complications of non-alcoholic fatty liver disease (human patients): neither metformin nor NAC alone provided any significant benefits

Structure (SMILES): N[C@@H](CSN=O)C(=O)O [s-nitroso-L-cysteine]
transport by LAT2 transporter (LAT2): efficiently transported
transport by LAT1 transporter (LAT1): efficiently transported
